Consider one compound from ChEMBL document CHEMBL1124673, “A multisubstrate adduct inhibitor of a purine biosynthetic enzyme with a picomolar dissociation constant” (J Med Chem, 1989).

The term Kd denotes the free concentration of one partner at which half of the binding sites on the other are occupied at equilibrium, for simple one-to-one binding. A low value points to a tighter complex. The Ki is the dissociation constant of the complex between target and ligand, obtained from inhibition or displacement.

A value given as a limit tells only on which side of the number the result lay.

The target of assay [1] is T1, Trifunctional purine biosynthetic protein adenosine-3 (Mus musculus, UniProt Q64737).
T1 sequence (Q64737 whole entry): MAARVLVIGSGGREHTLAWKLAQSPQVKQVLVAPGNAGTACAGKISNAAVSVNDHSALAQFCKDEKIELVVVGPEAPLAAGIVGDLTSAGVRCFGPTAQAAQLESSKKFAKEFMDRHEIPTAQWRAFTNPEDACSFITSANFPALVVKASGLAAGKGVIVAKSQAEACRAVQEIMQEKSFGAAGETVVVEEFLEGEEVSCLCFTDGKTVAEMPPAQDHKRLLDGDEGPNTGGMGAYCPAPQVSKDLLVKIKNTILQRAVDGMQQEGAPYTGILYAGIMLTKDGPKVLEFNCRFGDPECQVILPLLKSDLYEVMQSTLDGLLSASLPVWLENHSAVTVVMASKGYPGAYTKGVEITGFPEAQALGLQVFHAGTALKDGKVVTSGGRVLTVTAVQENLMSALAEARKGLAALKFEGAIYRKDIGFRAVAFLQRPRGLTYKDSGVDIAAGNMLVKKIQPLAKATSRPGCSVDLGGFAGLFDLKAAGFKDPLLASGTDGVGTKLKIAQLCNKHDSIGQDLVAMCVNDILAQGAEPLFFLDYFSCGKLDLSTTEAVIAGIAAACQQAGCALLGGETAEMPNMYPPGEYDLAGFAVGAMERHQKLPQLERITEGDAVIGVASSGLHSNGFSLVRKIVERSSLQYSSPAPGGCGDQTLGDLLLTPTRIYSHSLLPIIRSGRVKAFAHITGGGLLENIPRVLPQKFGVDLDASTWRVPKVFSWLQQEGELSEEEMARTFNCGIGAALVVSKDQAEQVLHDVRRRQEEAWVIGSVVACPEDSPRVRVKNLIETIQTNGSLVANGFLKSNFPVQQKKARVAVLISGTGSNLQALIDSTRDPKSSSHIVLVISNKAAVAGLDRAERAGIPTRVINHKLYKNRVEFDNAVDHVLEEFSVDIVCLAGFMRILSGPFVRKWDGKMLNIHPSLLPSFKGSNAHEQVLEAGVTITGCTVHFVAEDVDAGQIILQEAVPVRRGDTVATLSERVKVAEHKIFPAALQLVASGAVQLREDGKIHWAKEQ
Nature of the assay: Thermodynamic dissociation constant (KD) was measured upon binding to GAR TFase in mice.

Assay [2] deals with T1, Trifunctional purine biosynthetic protein adenosine-3. Briefly: Compound was tested for inhibition constant against GAR TFase in mice.

Compound `Nc1nc2ccc(CN(C(=O)CSCC(=O)NC3O[C@H](COP(=O)(O)O)[C@@H](O)[C@H]3O)c3ccc(C(=O)N[C@H](CCC(=O)O)C(=O)O)cc3)cc2c(=O)[nH]1` (some centres not stated) registered a dissociation constant (Kd) in assay [1] of 0.25 nM. In assay [2], this compound had an inhibition constant (Ki) above 100 nM.
